Source: the NIST ThermoML archive (doi:10.1016/j.jct.2004.12.008)

Assay: xn = mol fraction of the nth substance listed
Settings: 101 kPa, Liquid

C=Cc1ccccc1 [styrene] + O=[N+]([O-])c1ccccc1
Settings	mass density [kg/m3]
293.15 K, x1 = 0.0536	1185.47
293.15 K, x1 = 0.1324	1160.15
293.15 K, x1 = 0.1909	1141.63
293.15 K, x1 = 0.2564	1121.18
293.15 K, x1 = 0.3257	1099.86
293.15 K, x1 = 0.3986	1077.76
293.15 K, x1 = 0.4576	1060.12
293.15 K, x1 = 0.5243	1040.42
293.15 K, x1 = 0.5888	1021.61
293.15 K, x1 = 0.6424	1006.13
293.15 K, x1 = 0.7156	985.23
293.15 K, x1 = 0.7756	968.27
293.15 K, x1 = 0.8324	952.34
293.15 K, x1 = 0.8755	940.34
293.15 K, x1 = 0.9424	921.83
293.15 K, x1 = 1	906
303.15 K, x1 = 0.0621	1173.19
303.15 K, x1 = 0.1248	1152.93
303.15 K, x1 = 0.1822	1134.64
303.15 K, x1 = 0.2429	1115.56
303.15 K, x1 = 0.3139	1093.59
303.15 K, x1 = 0.3571	1080.39
303.15 K, x1 = 0.4249	1059.93
303.15 K, x1 = 0.4819	1042.96
303.15 K, x1 = 0.5487	1023.33
303.15 K, x1 = 0.5901	1011.29
303.15 K, x1 = 0.6528	993.23
303.15 K, x1 = 0.7289	971.58
303.15 K, x1 = 0.7913	954.03
303.15 K, x1 = 0.8592	935.12
303.15 K, x1 = 0.9368	913.72
303.15 K, x1 = 1	896.44
313.15 K, x1 = 0.0492	1167.15
313.15 K, x1 = 0.1189	1144.52
313.15 K, x1 = 0.1898	1121.9
313.15 K, x1 = 0.2563	1101.03
313.15 K, x1 = 0.3398	1075.31
313.15 K, x1 = 0.4018	1056.54
313.15 K, x1 = 0.4621	1038.54
313.15 K, x1 = 0.5243	1020.21
313.15 K, x1 = 0.5811	1003.69
313.15 K, x1 = 0.6421	986.16
313.15 K, x1 = 0.7132	965.98
313.15 K, x1 = 0.7723	949.39
313.15 K, x1 = 0.8421	930.01
313.15 K, x1 = 0.8942	915.68
313.15 K, x1 = 0.9524	899.79
313.15 K, x1 = 1	886.88
323.15 K, x1 = 0.0598	1152.7
323.15 K, x1 = 0.1329	1129.06
323.15 K, x1 = 0.1942	1109.58
323.15 K, x1 = 0.2458	1093.41
323.15 K, x1 = 0.3239	1069.35
323.15 K, x1 = 0.3891	1049.61
323.15 K, x1 = 0.4314	1036.97
323.15 K, x1 = 0.5028	1015.92
323.15 K, x1 = 0.5622	998.67
323.15 K, x1 = 0.6321	978.64
323.15 K, x1 = 0.6873	963.03
323.15 K, x1 = 0.7419	947.74
323.15 K, x1 = 0.8054	930.15
323.15 K, x1 = 0.8823	909.1
323.15 K, x1 = 0.9339	895.1
323.15 K, x1 = 1	877.32
333.15 K, x1 = 0.0647	1139.39
333.15 K, x1 = 0.1278	1119.07
333.15 K, x1 = 0.1825	1101.73
333.15 K, x1 = 0.2542	1079.38
333.15 K, x1 = 0.3183	1059.76
333.15 K, x1 = 0.3798	1041.24
333.15 K, x1 = 0.4248	1027.86
333.15 K, x1 = 0.4892	1008.97
333.15 K, x1 = 0.5329	996.32
333.15 K, x1 = 0.5892	980.2
333.15 K, x1 = 0.6379	966.41
333.15 K, x1 = 0.7132	945.37
333.15 K, x1 = 0.7987	921.85
333.15 K, x1 = 0.868	903.04
333.15 K, x1 = 0.9468	881.9
333.15 K, x1 = 1	867.76
343.15 K, x1 = 0.0687	1125.66
343.15 K, x1 = 0.1139	1111.2
343.15 K, x1 = 0.1842	1089.06
343.15 K, x1 = 0.2389	1072.13
343.15 K, x1 = 0.3234	1046.47
343.15 K, x1 = 0.3894	1026.81
343.15 K, x1 = 0.4346	1013.54
343.15 K, x1 = 0.4903	997.4
343.15 K, x1 = 0.5538	979.25
343.15 K, x1 = 0.614	962.29
343.15 K, x1 = 0.6622	948.88
343.15 K, x1 = 0.7319	929.71
343.15 K, x1 = 0.7922	913.35
343.15 K, x1 = 0.8531	896.99
343.15 K, x1 = 0.9234	878.32
343.15 K, x1 = 1	858.2
353.15 K, x1 = 0.055	1116.88
353.15 K, x1 = 0.1376	1090.79
353.15 K, x1 = 0.1726	1079.91
353.15 K, x1 = 0.2389	1059.6
353.15 K, x1 = 0.302	1040.61
353.15 K, x1 = 0.3791	1017.85
353.15 K, x1 = 0.4349	1001.66
353.15 K, x1 = 0.5139	979.13
353.15 K, x1 = 0.5628	965.4
353.15 K, x1 = 0.6249	948.19
353.15 K, x1 = 0.6733	934.94
353.15 K, x1 = 0.7234	921.37
353.15 K, x1 = 0.7981	901.38
353.15 K, x1 = 0.8621	884.47
353.15 K, x1 = 0.9412	863.83
353.15 K, x1 = 1	848.64
